Source: patent publication US12257323B2, “Modified wound dressings” (CONVATEC TECHNOLOGIES INC., priority 2016, dated 2025)

Key:
[1] = Hydrogel formation in buffer viewed under light microscope; details: pH 4 general lab buffer or pH 9 K2HPO4/MgCl2 buffer (20 μL each)
MMP-1 = target: T1, MMP-1 (Homo sapiens, UniProt P03956); details: cited from earlier work
T1 sequence (P03956 100-469): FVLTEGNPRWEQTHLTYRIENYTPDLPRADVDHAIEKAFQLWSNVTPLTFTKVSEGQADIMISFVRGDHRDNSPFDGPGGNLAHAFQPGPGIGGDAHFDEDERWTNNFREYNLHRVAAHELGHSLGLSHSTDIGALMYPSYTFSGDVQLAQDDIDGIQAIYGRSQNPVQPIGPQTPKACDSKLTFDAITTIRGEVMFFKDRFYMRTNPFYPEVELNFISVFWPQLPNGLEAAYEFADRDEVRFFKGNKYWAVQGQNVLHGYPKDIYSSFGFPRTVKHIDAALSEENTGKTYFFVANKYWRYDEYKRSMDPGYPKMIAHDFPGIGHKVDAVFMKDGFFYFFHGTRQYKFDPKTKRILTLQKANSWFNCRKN

MMP-8 = MMP-8 (Homo sapiens, UniProt P22894); details: cited from earlier work
MMP-2 = target: T2, MMP-2 (Homo sapiens, UniProt P08253); details: cited from earlier work
T2 sequence (P08253 110-660): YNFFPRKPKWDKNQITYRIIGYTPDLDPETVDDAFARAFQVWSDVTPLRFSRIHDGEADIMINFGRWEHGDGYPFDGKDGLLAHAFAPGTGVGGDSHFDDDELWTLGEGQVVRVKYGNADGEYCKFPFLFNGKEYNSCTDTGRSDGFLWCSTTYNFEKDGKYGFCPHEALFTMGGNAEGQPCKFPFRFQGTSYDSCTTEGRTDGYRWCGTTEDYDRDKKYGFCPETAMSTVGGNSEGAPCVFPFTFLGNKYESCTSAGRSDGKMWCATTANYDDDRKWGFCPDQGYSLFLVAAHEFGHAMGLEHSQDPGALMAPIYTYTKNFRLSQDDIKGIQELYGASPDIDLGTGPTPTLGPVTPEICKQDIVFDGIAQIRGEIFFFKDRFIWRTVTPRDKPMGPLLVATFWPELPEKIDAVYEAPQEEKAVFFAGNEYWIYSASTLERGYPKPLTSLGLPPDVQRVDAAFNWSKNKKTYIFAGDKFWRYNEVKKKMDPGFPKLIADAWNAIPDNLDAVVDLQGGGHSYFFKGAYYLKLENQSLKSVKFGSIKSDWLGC

MMP-9 = MMP-9 (Homo sapiens, UniProt P14780); details: cited from earlier work
MMP-3 = MMP-3 (Homo sapiens, UniProt P08254); details: cited from earlier work
MMP-7 = target: T3, MMP-7 (Homo sapiens, UniProt P09237); details: cited from earlier work
T3 sequence (P09237 95-267): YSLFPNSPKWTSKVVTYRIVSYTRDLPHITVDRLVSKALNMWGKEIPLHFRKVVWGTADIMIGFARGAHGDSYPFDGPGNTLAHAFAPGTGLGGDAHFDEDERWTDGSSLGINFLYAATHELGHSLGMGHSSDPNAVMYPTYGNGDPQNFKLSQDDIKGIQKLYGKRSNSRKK

MMP-9, sequence (P14780 94-707): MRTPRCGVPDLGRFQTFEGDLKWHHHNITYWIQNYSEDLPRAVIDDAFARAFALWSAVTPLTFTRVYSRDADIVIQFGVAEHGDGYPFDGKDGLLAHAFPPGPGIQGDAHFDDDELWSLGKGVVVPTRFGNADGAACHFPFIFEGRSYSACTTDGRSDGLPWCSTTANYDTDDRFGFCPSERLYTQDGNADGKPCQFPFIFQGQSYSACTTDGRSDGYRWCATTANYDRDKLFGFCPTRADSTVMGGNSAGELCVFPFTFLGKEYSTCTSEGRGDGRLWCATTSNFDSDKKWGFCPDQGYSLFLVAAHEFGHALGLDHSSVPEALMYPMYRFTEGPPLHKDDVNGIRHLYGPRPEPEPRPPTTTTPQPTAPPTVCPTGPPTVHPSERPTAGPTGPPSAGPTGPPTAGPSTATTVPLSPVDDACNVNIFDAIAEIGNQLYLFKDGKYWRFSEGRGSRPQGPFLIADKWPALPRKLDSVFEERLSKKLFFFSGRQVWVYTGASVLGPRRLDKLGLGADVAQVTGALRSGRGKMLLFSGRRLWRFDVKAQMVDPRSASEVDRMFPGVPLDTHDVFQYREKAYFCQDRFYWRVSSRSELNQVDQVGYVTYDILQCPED
MMP-8, sequence (P22894 101-467): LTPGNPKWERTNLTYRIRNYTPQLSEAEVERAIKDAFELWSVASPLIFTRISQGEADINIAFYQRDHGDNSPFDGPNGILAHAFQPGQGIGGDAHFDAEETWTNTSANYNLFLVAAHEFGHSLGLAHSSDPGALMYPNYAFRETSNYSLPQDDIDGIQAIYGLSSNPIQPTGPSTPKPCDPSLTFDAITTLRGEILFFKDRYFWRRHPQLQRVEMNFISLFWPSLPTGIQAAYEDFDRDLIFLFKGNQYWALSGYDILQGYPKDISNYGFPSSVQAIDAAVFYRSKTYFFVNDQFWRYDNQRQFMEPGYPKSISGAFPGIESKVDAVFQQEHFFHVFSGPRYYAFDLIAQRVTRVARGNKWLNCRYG
MMP-3, sequence (P08254 100-477): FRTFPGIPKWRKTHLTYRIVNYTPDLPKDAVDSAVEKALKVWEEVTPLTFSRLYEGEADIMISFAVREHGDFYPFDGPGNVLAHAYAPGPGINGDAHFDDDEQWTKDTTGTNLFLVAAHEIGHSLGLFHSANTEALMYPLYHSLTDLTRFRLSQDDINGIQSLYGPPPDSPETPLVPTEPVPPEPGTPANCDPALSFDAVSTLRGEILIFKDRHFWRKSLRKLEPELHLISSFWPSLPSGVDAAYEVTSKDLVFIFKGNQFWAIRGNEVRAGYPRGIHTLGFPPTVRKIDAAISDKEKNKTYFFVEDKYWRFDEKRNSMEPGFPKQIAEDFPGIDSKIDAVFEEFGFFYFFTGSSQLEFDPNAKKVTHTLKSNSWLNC

Row | Compound | Hydrogel formation on contact with buffer [1] | Relative rate MMP-1 (MMP-1) | Relative rate MMP-8 (MMP-8) | Relative rate MMP-2 (MMP-2) | Relative rate MMP-9 (MMP-9) | Relative rate MMP-3 (MMP-3) | Relative rate MMP-7 (MMP-7)
1 | CN(C)c1ccc(/N=N/c2ccc(S(=O)(=O)NCCCC[C@H](NC(=O)OCC3c4ccccc4-c4ccccc43)C(=O)O)cc2)cc1 [compound 4-c] | did not form a hydrogel | – | – | – | – | – | –
2 | Gly-Pro-Gln-Gly#Val-Ala-Gly-Gln | – | 9.1 | 9.0 | 30 | 25 | 53 | 17
3 | Gly-Pro-Gln-Leu#Ile-Ala-Gly-Gln | – | 27 | 54 | 21 | 8.8 | 170 | 49
4 | Gly-Pro-Gln-Met#Ile-Ain-Gly-Gln | – | 200 | 140 | 22 | 12 | 110 | 150
5 | Gly-Pro-Gln-Phe#Ile-Ala-Gly-Gln | – | 95 | 170 | 15 | 26 | 68 | 63
6 | Gly-Pro-Gln-Pro#Ile-Ala-Gly-Gln | – | 260 | 190 | 32 | 46 | 170 | 140
7 | Gly-Pro-Gln-Tyr#Ile-Ala-Gly-Gln | – | 130 | 180 | 58 | 30 | 68 | 34
8 | Gly-Pro-Gln-Val#Ile-Ala-GLy-Gln | – | 5.5 | 7.9 | <5.0 | <5.0 | 32 | <5.0
9 | Gly-Pro-Hyp-Gly#Ile-Ala-Gly-Gln | – | 11 | 15 | 32 | 15 | 83 | 17
10 | Gly-Pro-Leu-Gly#Ile-Ala-Gly-Gln | – | 150 | 260 | 330 | 290 | 190 | 420
11 | Gly-Pro-Tyr-Gly#Ile-Ala-Gly-Gln | – | 200 | 110 | 200 | 150 | 230 | 240
12 | Gly-Pro-Val-Gly#Ile-Ala-Gly-Gln | – | 32 | 30 | 130 | 110 | 160 | 57
13 | Gly-Pto-Arg-Gly#Ile-Ala-Gly-Gln | – | 17 | 32 | 160 | 83 | 99 | 13
14 | Gly-Pto-Met-Gly#Ile-Ala-Gly-Gln (IAGQ; printed: Ile-Ala-Gly-Gln) | – | 160 | 160 | 120 | 180 | 120 | 400
